The values that follow come from article PMC4788153, “Impact of Cytochrome P450 2D6 Function on the Chiral Blood Plasma Pharmacokinetics of 3,4-Methylenedioxymethamphetamine (MDMA) and Its Phase I and II Metabolites in Humans” (PLoS ONE, 2016).

By Cmax is commonly meant the highest concentration seen after dosing. Broadly, the Tmax is the time at which the peak concentration occurs.

Data set [1] is described as follows: Chiral plasma pharmacokinetics of bupropion and hydroxybupropion. To be noted: bupropion+MDMA vs bupropion+placebo.
Method: Washout periods between test sessions were at least 10 days. […] Blood samples were collected -2, 0, 0.33, 0.67, 1, 1.5, 2, 2.5, 3, 4, 6, 8, and 24 h after MDMA or placebo administration. All of the subjects were genotyped [47] and phenotyped [48] for CYP2D6 activity. The study included 13 EMs, three IMs, and no PMs (genotyping and phenotyping congruent) [40]. Subjects were also genotyped for CYP2B6 (reduced-activity single nucleotid polymorphism rs3745274 (516G>T, CYP2B6*6 or CYP2B6*9) using commercial TaqMan assay (LuBio Science, Lucerne, Switzerland). There were 9 subjects with the G/G, 6 subjects with the G/T and one subject with the T/T genotype. Subjects with G/T or T/T genotype were considered to have a reduced CYP2B6 function.
The method was fully validated according to national and international guidelines [49, 50].
The time interval after dosing until detection of the first positive sample was designated as the time of first detection (tonset). […] Mann-Whitney tests (95% confidence interval) were used to test for between-subject differences between CYP2D6 EMs (n = 13) and CYP2D6 IMs (n = 3). The statistical analyses were performed using Prism 6.00 software (GraphPad Software, La Jolla, CA, USA).
An aliquot of 550 µl was transferred into an autosampler vial, 50 µl of formic acid were added and the mixture was evaporated to dryness under a gentle stream of nitrogen at 40 °C. The residue was dissolved in 100 µl of mobile phase 20 mM ammonium acetate buffer, pH 6.6 (A) and methanol (B) (1:1, v/v). 10 µl of this solution were injected into the LC-MS/MS system.
The analysis was performed using a Thermo Fischer Ultimate 3000 UHPLC system (Thermo Fisher, San Jose, California, USA) coupled to an ABSciex 5500 QTtrap linear ion trap quadrupole mass spectrometer (ABSciex, Darmstadt/Germany) with positive electrospray ionization (ESI) in multiple reaction monitoring mode (MRM).
The LC settings were as follows: Chiral AGP column (100 x 4.0 mm, 5 µm), gradient elution with 20 mM ammonium formate buffer in water (pH 6.6, A) and methanol (B) . The flow rate was 0.8 ml/min with the following gradient: start conditions 10% B for 0.5 min, 0.5-6 min to 30% B, 6-7 min to 50% B, 7-9 min to 80% B hold at 80% B for 1 min, at 10 min reequilibrating to 10% B for 2 min. Injection volume was 10 µl.
The Turbo V ion source equipped with a stainless steel electrode (100 µm internal diameter) was operated in positive ESI mode with the following MS conditions: gas 1, nitrogen (50 psi); gas 2, nitrogen (60 psi); ion spray voltage, 5500; ion-source temperature, 550 °C; curtain gas, nitrogen (30 psi), collision gas, high. The MS was operated in the MRM mode with a scan time of 50 ms using 3 transitions for each analyte except for the ISs where 1 MRM transition was used. […] The MS was controlled by analyst 1.6.2 software.
The nature of data set [2]: Chiral plasma pharmacokinetics of MDMA and its phase I and II metabolites after controlled MDMA administration. The format is in vivo, human. The conditions noted are these: for AUC(0-t) / Cmax / half-life / Tmax: human, plasma; for AUC(0-t): read-out: AUC0-24h S; for Cmax: read-out: Cmax S; for half-life: read-out: t1/2 S (converted); for Tmax: read-out: tmax S; for change in AUC24 after bupropion pretreatment / change in Cmax after bupropion pretreatment: bupropion+MDMA vs placebo+MDMA, unsigned = increase. The method, then: Blood plasma samples were analyzed non-stereoselectively as reported previously and reanalyzed for the present report using liquid chromatography-mass spectrometry/mass spectrometry after chiral derivatization with Marfey’s reagent as described previously. The method was fully validated, including selectivity, recovery, matrix effects, bias and imprecision, stability, and limit of quantification.

Setting [3] is: both sexes, oral, 125 mg, placebo+MDMA (125 mg), CYP2D6 EM, n=13, plasma.
The mark [4] stands for this setting: both sexes, oral, bupropion+MDMA (125 mg), CYP2D6 EM (EM/Bup), n=13, plasma.
Setting [5] is: bupropion+MDMA (125 mg), CYP2D6 EM (EM/Bup), n=13, plasma.
Where [6] appears, read: im, placebo+MDMA (125 mg), CYP2D6 IM, n=3, plasma.
The mark [7] stands for this setting: placebo+MDMA (125 mg), CYP2D6 EM, n=13, plasma.
The mark [8] stands for this setting: placebo+MDMA (125 mg), CYP2D6 IM, n=3, plasma.
Where [9] appears, read: placebo-pretreated EMs, same-configuration MDMA enantiomer.
Where [10] appears, read: bupropion-pretreated CYP2D6 EMs.
[11] abbreviates: bupropion vs placebo pretreatment, CYP2D6 EMs.

Molecules are shown by their SMILES. Where a name gives a salt, the structure may show the parent alone. Read-outs that look alike come from different tables or passages of the source.

For `C[C@H]1NC(C)(C)CO[C@]1(O)c1cccc(Cl)c1` [R,R-hydroxybupropion, hydroxybupropion], the “effect of MDMA co-administration on plasma concentrations” value in data set [1] is listed as “did not significantly alter”.
As for `CN[C@@H](C)Cc1ccc(O)c(OS(=O)(=O)O)c1` [S-DHMA 3-sulfate], the “metabolite/MDMA ratio, mean constant (after approximately 2 h)” value (shortened to “metabolite/MDMA ratio, mean constant”) was determined as 0.42 in data set [2] (IMs), 0.34 in data set [2] (bupropion-pretreated EMs) and 1.1 in data set [2] (placebo-pretreated EMs). In addition, the “metabolite/MDMA ratio, mean initial (highest, first hour)” value (shortened to “metabolite/MDMA ratio, mean initial”) is on record as 8.8 in data set [2] (IMs), 1.8 in data set [2] (bupropion-pretreated EMs) and 33 in data set [2] (setting [9]). In addition, the AUC(0-t) was found to be 6.3 µM·h in data set [2] (setting [3]), 2.8 µM·h in data set [2] (setting [4]) and 3 µM·h in data set [2] (setting [6]). Besides, the Cmax in data set [2] (setting [3]) is 590 nM; in data set [2] (setting [4]) it was 200 nM; in data set [2] (setting [6]) it was 280 nM. Further, the values for the half-life in data set [2] (setting [3]), in data set [2] (setting [4]) and in data set [2] (setting [6]) were 7.3 h, 11.3 h and 7 h, respectively. Besides, the Tmax in data set [2] (setting [3]) came to 1.5 h; in data set [2] (setting [4]), 2.4 h; in data set [2] (setting [6]), 1.9 h. Also, the entries for the “AUCtotal S” value in data set [2] (setting [5]), in data set [2] (setting [7]) and in data set [2] (setting [8]) were 3.7 (2.1) μmol/l*h-1, 7.1 (3.1) μmol/l*h-1 and 3.3 (1.1) μmol/l*h-1, respectively. The “change in AUC24 after bupropion pretreatment” value (from here on “change in AUC24”) in data set [2] (CYP2D6 EMs) was -56%. Further, in data set [2] (CYP2D6 EMs), the “change in Cmax after bupropion pretreatment” value (“change in Cmax” below) was -67%.
Turning to `CN[C@@H](C)Cc1ccc(OS(=O)(=O)O)c(O)c1` [S-DHMA 4-sulfate], the “metabolite/MDMA ratio, mean constant” value was 0.05 in data set [2] (IMs), 0.04 in data set [2] (bupropion-pretreated EMs) and 0.11 in data set [2] (placebo-pretreated EMs). In addition, the “metabolite/MDMA ratio, mean initial” value in data set [2] (IMs) is listed as 0.91; in data set [2] (bupropion-pretreated EMs), 0.60; in data set [2] (setting [9]), 3.8. The values for the AUC(0-t) in data set [2] (setting [3]), in data set [2] (setting [4]) and in data set [2] (setting [6]) were 0.64 µM·h, 0.32 µM·h and 0.4 µM·h, respectively. Besides, the values for the highest concentration (Cmax) in data set [2] (setting [3]), in data set [2] (setting [4]) and in data set [2] (setting [6]) were 55 nM, 21 nM and 29 nM, respectively. Moreover, the half-life is 8.1 h in data set [2] (setting [3]), 14.3 h in data set [2] (setting [4]) and 12.1 h in data set [2] (setting [6]). In addition, the results for the time of peak concentration (Tmax) in data set [2] (setting [3]), in data set [2] (setting [4]) and in data set [2] (setting [6]) were 1.7 h, 2.4 h and 2.1 h, respectively. Moreover, the figures for the “AUCtotal S” value in data set [2] (setting [5]), in data set [2] (setting [7]) and in data set [2] (setting [8]) were 0.48 (0.19) μmol/l*h-1, 0.80 (0.37) μmol/l*h-1 and 0.59 (0.30) μmol/l*h-1, respectively. Also, in data set [2] (CYP2D6 EMs), the “change in AUC24” value is recorded as -50%. Also, the “change in Cmax” value in data set [2] (CYP2D6 EMs) is listed as -61%.
As to `CNC(C)Cc1ccc(OC2OC(C(=O)O)C(O)C(O)C2O)c(OC)c1` (stereo not shown) [S-HMMA glucuronide], the “metabolite/MDMA ratio, mean constant” value worked out at 0.20 in data set [2] (IMs), 0.20 in data set [2] (bupropion-pretreated EMs) and 1.3 in data set [2] (placebo-pretreated EMs). Moreover, the “metabolite/MDMA ratio, mean initial” value came out at 0.30 in data set [2] (IMs), 0.10 in data set [2] (bupropion-pretreated EMs) and 5.6 in data set [2] (setting [9]). In addition, the AUC(0-t) in data set [2] (setting [3]) is 5.2 µM·h; in data set [2] (setting [4]), 1.3 µM·h; in data set [2] (setting [6]) it was 1.3 µM·h. For the same molecule, the Cmax in data set [2] (setting [3]) was found to be 490 nM; in data set [2] (setting [4]) it was 88 nM; in data set [2] (setting [6]), 99 nM. For the same molecule, the half-life in data set [2] (setting [3]) is 6.1 h; in data set [2] (setting [4]), 9 h; in data set [2] (setting [6]) it was 7.1 h. Further, the Tmax in data set [2] (setting [3]) turned out to be 2.9 h; in data set [2] (setting [4]), 4.9 h; in data set [2] (setting [6]), 4 h. The “AUCtotal S” value in data set [2] (setting [5]) is on record as 1.7 (1.0) μmol/l*h-1; in data set [2] (setting [7]) it was 5.5 (3.9) μmol/l*h-1; in data set [2] (setting [8]) it was 1.5 (0.83) μmol/l*h-1. Also, the “change in AUC24” value in data set [2] (CYP2D6 EMs) is given as -74%. Moreover, in data set [2] (CYP2D6 EMs), the “change in Cmax” value is -82%. For the same molecule, the “tonset (time of first detection), mean” value stood at 0.71 h in data set [2] (setting [10]) and 0.38 h in data set [2] (placebo-pretreated CYP2D6 EMs).
Take `CN[C@@H](C)Cc1ccc(OS(=O)(=O)O)c(OC)c1` [S-HMMA sulfate]: the “metabolite/MDMA ratio, mean constant” value in data set [2] (IMs) worked out at 0.28; in data set [2] (bupropion-pretreated EMs), 0.21; in data set [2] (placebo-pretreated EMs), 0.86. The results for the “metabolite/MDMA ratio, mean initial” value in data set [2] (IMs), in data set [2] (bupropion-pretreated EMs) and in data set [2] (setting [9]) were 2.3, 0.26 and 17.7, respectively. Further, the AUC(0-t) in data set [2] (setting [3]) amounted to 4.2 µM·h; in data set [2] (setting [4]), 1.6 µM·h; in data set [2] (setting [6]), 1.7 µM·h. Besides, the values for the Cmax in data set [2] (setting [3]), in data set [2] (setting [4]) and in data set [2] (setting [6]) were 410 nM, 110 nM and 140 nM, respectively. For the same molecule, the values for the half-life in data set [2] (setting [3]), in data set [2] (setting [4]) and in data set [2] (setting [6]) were 6.6 h, 11.1 h and 6.9 h, respectively. In addition, the results for the Tmax in data set [2] (setting [3]), in data set [2] (setting [4]) and in data set [2] (setting [6]) were 1.6 h, 2.8 h and 2.5 h, respectively. Also, the entries for the “AUCtotal S” value in data set [2] (setting [5]), in data set [2] (setting [7]) and in data set [2] (setting [8]) were 2.2 (0.75) μmol/l*h-1, 4.6 (1.2) μmol/l*h-1 and 1.9 (0.34) μmol/l*h-1, respectively. Further, the “change in AUC24” value in data set [2] (CYP2D6 EMs) was -61%. The “change in Cmax” value in data set [2] (CYP2D6 EMs) is reported as -72%. The “tonset (time of first detection), mean” value in data set [2] (setting [10]) amounted to 0.56 h; in data set [2] (placebo-pretreated CYP2D6 EMs), 0.33 h.
For `CC(N)Cc1ccc2c(c1)OCO2` (stereo not shown) [S-MDA, 3,4-methylenedioxyamphetamine], in data set [2] (setting [3]), the AUC(0-t) worked out at 0.61 µM·h, the Cmax amounted to 41 nM, the half-life is 9.2 h and the time to peak (Tmax) is 4.6 h. For the same molecule, in data set [2] (setting [4]), the AUC(0-t) came to 0.49 µM·h, the Cmax stood at 31 nM, the half-life was 11.1 h and the Tmax stood at 5.2 h. For the same molecule, the “AUCtotal S” value in data set [2] (setting [5]) is given as 0.69 (0.17) μmol/l*h-1. Further, in data set [2] (CYP2D6 EMs), the “change in AUC24” value is recorded as -20% and the “change in Cmax” value was -24%. Further, in data set [2] (setting [6]), the AUC(0-t) came to 0.65 µM·h, the highest concentration (Cmax) was 42 nM, the half-life is 10.6 h and the Tmax came to 4.4 h. In addition, the “AUCtotal S” value in data set [2] (setting [7]) is given as 0.76 (0.27) μmol/l*h-1. For the same molecule, in data set [2] (setting [8]), the “AUCtotal S” value is given as 0.87 (0.31) μmol/l*h-1.
`CN[C@@H](C)Cc1ccc2c(c1)OCO2` [S-MDMA, 3,4-methylenedioxymethamphetamine]: in data set [2] (setting [3]), the AUC(0-t) was 4.9 µM·h, the Cmax is 560 nM, the half-life is 4.5 h and the Tmax was 2.1 h. In addition, in data set [2] (setting [4]), the AUC(0-t) is 6.8 µM·h, the Cmax turned out to be 650 nM, the half-life is 5.7 h and the Tmax turned out to be 2.5 h. Besides, in data set [2] (setting [11]), the “prolongation of t1/2 after bupropion pretreatment” value is 26% and the “reduction of Cl/F after bupropion pretreatment” value is -31%. Moreover, in data set [2] (setting [5]), the “AUCtotal S” value is 7.2 (1.7) μmol/l*h-1 and the “CL/F S” value was 50.5 (13.5) l/h. In data set [2] (CYP2D6 EMs), the “change in AUC24” value is reported as 38% and the “change in Cmax” value was 16%. In data set [2] (setting [6]), the AUC(0-t) came to 6.8 µM·h, the Cmax is 720 nM, the half-life is 5.1 h and the Tmax stood at 2.3 h. In data set [2] (setting [7]), the “AUCtotal S” value is given as 5.1 (1.5) μmol/l*h-1 and the “CL/F S” value is 72.8 (26.2) l/h. Further, in data set [2] (setting [8]), the “AUCtotal S” value is recorded as 7.1 (2.0) μmol/l*h-1 and the “CL/F S” value is reported as 50.4 (12.6) l/h.
